Assay results taken from patent US8551939B2, “Peptide analogues, particularly for the treatment of chronic pain” (Instytut Medycyny Doswiadczalnej I Klinicznej, priority 2008, dated 2013).
Where a SMILES comes first, the peptide text is derived from it. [ ]: non-standard residue; d: D form.

How the values were obtained:
Type in all cases: in vivo
[1] = system: mice with inflammation due to tumour take; experiment: Oncogenic pain model (murine melanoma cells into the hind leg), tail immersion in 55° C. water; settings: two weeks of melanoma tumour development, intraperitoneal, 30 mg/kg
Procedure: In an animal oncogenic pain model, in mice, inflammation was induced via the administration of about a million murine melanoma cells into the hind leg. After two days we observed increasing inflammation due to tumour take. After two weeks of tumour development we examined the effect of Tyrosyl-D-arginyl-phenylalanyl-phenylalanyl-lysyl-lysyl-prolyl-tyrosyl-isoleucyl-leucine against acute pain elicited by tail immersion in 55° C. water.

mice with inflammation = experiment: Tail immersion (55° C.) acute pain test in mice with Freund's adjuvant induced paw inflammation; settings: one week after Freund's adjuvant into the paw, intravenous, 20 mg/kg
Procedure: Inflammation was induced in mice by administering Freund's adjuvant into the paw. Inflammation was observed within two days. After a week, we examined the analgesic activity of the peptide analogue Tyrosyl-D-lysyl-phenylalanyl-phenylalanyl-arginyl-arginyl-prolyl-tyrosyl-isoleucyl-leucine against acute pain elicited by immersion of the tail into 55° C.

rats = experiment: Analgesic activity against thermal pain after administration into the subarachnoid space via cannulae; settings: subarachnoid cannula
Source text: Two weeks prior to the experiment, rats were implanted with cannulae into the subarachnoid space. On the day of the experiment we examined analgesic activity by administering the peptide Tyrosyl-D-lysyl-phenylalanyl-phenylalanyl-lysyl-lysyl-prolyl-tyrosyl-isoleucyl-leucine.

`CC[C@H](C)[C@H](NC(=O)[C@H](Cc1ccc(O)cc1)NC(=O)[C@@H]1CCCN1C(=O)[C@H](CCCCN)NC(=O)[C@H](CCCCN)NC(=O)[C@H](Cc1ccccc1)NC(=O)[C@H](Cc1ccccc1)NC(=O)[C@@H](CCCNC(=N)N)NC(=O)[C@@H](N)Cc1ccc(O)cc1)C(=O)N[C@@H](CC(C)C)C(=O)O` [Tyrosyl-D-arginyl-phenylalanyl-phenylalanyl-lysyl-lysyl-prolyl-tyrosyl-isoleucyl-leucine] (H-Y[dR]FFKKPYIL-OH) was tested, and the “effect against acute pain elicited by tail immersion in 55° C. water” value [1] was “complete analgesis”.
In the case of `CC[C@H](C)[C@H](NC(=O)[C@H](Cc1ccc(O)cc1)NC(=O)[C@@H]1CCCN1C(=O)[C@H](CCCNC(=N)N)NC(=O)[C@H](CCCNC(=N)N)NC(=O)[C@H](Cc1ccccc1)NC(=O)[C@H](Cc1ccccc1)NC(=O)[C@@H](CCCCN)NC(=O)[C@@H](N)Cc1ccc(O)cc1)C(=O)N[C@@H](CC(C)C)C(=O)O` [Tyrosyl-D-lysyl-phenylalanyl-phenylalanyl-arginyl-arginyl-prolyl-tyrosyl-isoleucyl-leucine] (H-Y[dK]FFRRPYIL-OH), the “analgesic activity against acute pain elicited by immersion of the tail into 55° C.” value (mice with inflammation) is reported as “complete analgesis”.
In the case of `CC[C@H](C)[C@H](NC(=O)[C@H](Cc1ccc(O)cc1)NC(=O)[C@@H]1CCCN1C(=O)[C@H](CCCCN)NC(=O)[C@H](CCCCN)NC(=O)[C@H](Cc1ccccc1)NC(=O)[C@H](Cc1ccccc1)NC(=O)[C@@H](CCCCN)NC(=O)[C@@H](N)Cc1ccc(O)cc1)C(=O)N[C@@H](CC(C)C)C(=O)O` [Tyrosyl-D-lysyl-phenylalanyl-phenylalanyl-lysyl-lysyl-prolyl-tyrosyl-isoleucyl-leucine] (H-Y[dK]FFKKPYIL-OH), the “change of analgesic effect on repeated administration (tolerance)” value (rats; daily dose of 5 mg) is reported as “no changes in the extensive analgesic effect”, the “analgesic activity against thermal pain” value (rats; dose of 5 mg) is reported as “complete analgesis” and the “duration of complete analgesis against thermal pain” value (rats; dose of 5 mg) is reported as 1 h.
